According to paper PMC10838382 (Cancer Drug Resistance, 2024):
Where two headings read alike, the source gives them in different places.

Key:
MAXFTN CAL-51 = assay: cells; conditions: Homo sapiens, CAL-51, read-out: Relative docetaxel IC50
PRXF 22Rv1 = assay: 2D proliferation assay (CellTiter-Blue); assay type: cell-based; conditions: Homo sapiens
DU-145DOC10 [1] = assay: 2D proliferation assay, docetaxel-resistant subline; assay type: cell-based, human; conditions: for IC50: Homo sapiens
MAXFLB MCF7 = assay: cells; conditions: Homo sapiens, MCF7, read-out: Relative docetaxel IC50
PC-3 = assay: 2D proliferation assay (CellTiter-Blue); assay type: cell-based; conditions: Homo sapiens
LXFA EKVX = assay: cells; conditions: Homo sapiens, read-out: Relative docetaxel IC50
22Rv1DOC8 [2] = assay: 3D clonogenic assay (soft agar); assay type: cell-based, human; conditions: for Relative resistance: 22Rv1DOC8 vs 22Rv1; for IC50: Homo sapiens
22Rv1DOC8 [3] = assay: 2D proliferation assay, docetaxel-resistant subline; assay type: cell-based, human; conditions: for IC50: Homo sapiens
OVXF 899 = assay: cells; conditions: read-out: Relative docetaxel IC50
15 tumor cell lines = assay: 2D proliferation assay (CellTiter-Blue), panel of 15 tumor cell lines; conditions: read-out: mean relative IC50
GXA NUGC-4 = assay: cells; conditions: Homo sapiens, NUGC-4, read-out: Relative docetaxel IC50
[4] = Bidirectional permeability assay across Caco-2 monolayers; assay type: in vitro ADME, human; conditions: human
Description: (§1) Samples were analyzed using LC-MS/MS.
(§2) The medium was changed 24 h before the experiment. […] The bioanalysis of docetaxel was performed with the .
(§3) The following equation was used to calculate apparent permeability coefficient (Papp):
(§4) dQ: amount of transporter test drug in pmol; dT: incubation time in seconds; A: surface of porous membrane in cm^2 (standard: 0.7); C0: initial concentration of test agent in the donor chamber in pmol/cm^3.

Caco-2 cell monolayers = assay: as above; assay type: in vitro ADME, human; conditions: for ER: inhibitor where named: valspodar 10 μM or ritonavir 50 μM
Description: as §1, §2, §3, §4

DU-145DOC10 [5] = assay: 3D clonogenic assay (soft agar); assay type: cell-based, human; conditions: for Relative resistance: DU-145DOC10 vs DU-145
OVXF EFO-27 = assay: 2D proliferation assay (CellTiter-Blue); conditions: Homo sapiens, EFO-27, read-out: Relative docetaxel IC50
OVXF NCI-ADR-RES = assay: cells; conditions: Homo sapiens, read-out: Relative docetaxel IC50
GXA 3011 = assay: cells; conditions: read-out: Relative docetaxel IC50
22Rv1 = assay: 3D clonogenic assay (soft agar); conditions: Homo sapiens, 22Rv1, read-out: Docetaxel IC50, 22Rv1, 3D clonogenic assay
PC-3DOC3 = assay: 2D proliferation assay, docetaxel-exposed subline; assay type: cell-based, human
DU-145 = assay: 3D clonogenic assay (soft agar); conditions: Homo sapiens, DU-145, read-out: Docetaxel IC50, DU-145, 3D clonogenic assay
MAXFTN MX1 = assay: 2D proliferation assay (CellTiter-Blue); conditions: read-out: Relative docetaxel IC50
PC-3M = assay: 2D proliferation assay (CellTiter-Blue); conditions: Homo sapiens, read-out: Relative docetaxel IC50
MAXFTN MCF 10A = assay: cells; conditions: Homo sapiens, read-out: Relative docetaxel IC50
LXFA 737 = assay: 2D proliferation assay (CellTiter-Blue); conditions: read-out: Relative docetaxel IC50
PRXF DU-145 = assay: 2D proliferation assay (CellTiter-Blue); assay type: cell-based, human; conditions: Homo sapiens
[6] = docetaxel + elacridar 1 µM, 3D clonogenic assay
[7] = docetaxel + ritonavir 10 µM, 3D clonogenic assay
[8] = docetaxel without elacridar, 3D clonogenic assay
[9] = docetaxel without ritonavir, 3D clonogenic assay
[10] = without elacridar (elacridar experiment)
[11] = without ritonavir (ritonavir experiment)

CC(=O)O[C@@]12CO[C@@H]1C[C@H](O)[C@@]1(C)C(=O)[C@H](O)C3=C(C)[C@@H](OC(=O)[C@H](O)[C@@H](NC(=O)OC(C)(C)C)c4ccccc4)C[C@@](O)([C@@H](OC(=O)c4ccccc4)[C@H]21)C3(C)C [Docetaxel]
IC50 (MAXFTN CAL-51): 1.7 nM
IC50 (PRXF 22Rv1; 22Rv1, 2D culture, Figure 1, read-out: IC 50): 0.98 nM
IC50 (PRXF 22Rv1; 22Rv1 parental, 2D proliferation assay, read-out: Docetaxel IC50): 1 nM
IC50 (PRXF 22Rv1; PRXF 22Rv1, 2D proliferation assay, read-out: Relative docetaxel IC50): 1.5 nM
Relative resistance (DU-145DOC10 [1]; DU-145DOC10 vs DU-145, 2D proliferation assay): 22.3
IC50 (DU-145DOC10 [1]; DU-145DOC10 (passage 10 nM docetaxel), 2D proliferation assay, read-out: Docetaxel IC50): 17.8 nM
IC50 (DU-145DOC10 [1]; DU-145DOC10, 2D culture, Figure 1, read-out: IC 50): 17.8 nM
IC50 (MAXFLB MCF7): 1.1 nM
IC50 (PC-3; PC-3, read-out: Relative docetaxel IC50): 1.9 nM
IC50 (PC-3; PC-3 parental, read-out: Docetaxel IC50): 1.1 nM
IC50 (LXFA EKVX): 1.9 nM
fold decrease of relative IC50 of docetaxel by elacridar (22Rv1DOC8 [2]; 22Rv1DOC8, elacridar 1 µM as printed (lower of two concentrations), 3D clonogenic assay): 91 fold
fold decrease of relative IC50 of docetaxel by elacridar (22Rv1DOC8 [2]; 22Rv1DOC8, elacridar 10 µM as printed (higher of two concentrations), 3D clonogenic assay): 116 fold
fold decrease of docetaxel IC50 by ritonavir (22Rv1DOC8 [2]; 22Rv1DOC8, ritonavir 32 μM, 3D clonogenic assay): 84 fold
Relative resistance (22Rv1DOC8 [2]; [6]): 1.0
Relative resistance (22Rv1DOC8 [2]; [7]): 35.5
Relative resistance (22Rv1DOC8 [2]; docetaxel + ritonavir 10 µM, 3D clonogenic assay, listed as docetaxel): 36
Relative resistance (22Rv1DOC8 [2]; docetaxel + ritonavir 32 µM, 3D clonogenic assay): 2.3
Relative resistance (22Rv1DOC8 [2]; [8]): 103.1
Relative resistance (22Rv1DOC8 [2]; [9]): 42.0
IC50 (22Rv1DOC8 [2]; 22Rv1DOC8, 3D clonogenic assay, + elacridar 1 µM, read-out: Docetaxel IC50): 1.3 nM
IC50 (22Rv1DOC8 [2]; 22Rv1DOC8, 3D clonogenic assay, + ritonavir 10 µM, read-out: Docetaxel IC50): 46.2 nM
IC50 (22Rv1DOC8 [2]; 22Rv1DOC8, 3D clonogenic assay, + ritonavir 32 µM, read-out: Docetaxel IC50): 3 nM
IC50 (22Rv1DOC8 [2]; 22Rv1DOC8, 3D clonogenic assay, without elacridar (elacridar experiment), read-out: Docetaxel IC50): 134 nM
IC50 (22Rv1DOC8 [2]; 22Rv1DOC8, 3D clonogenic assay, without ritonavir (32 μM ritonavir experiment, Figure 5), read-out: relative IC50 value of docetaxel): 219 nM
IC50 (22Rv1DOC8 [2]; 22Rv1DOC8, 3D clonogenic assay, without ritonavir (ritonavir experiment), read-out: Docetaxel IC50): 54.6 nM
IC50 (22Rv1DOC8 [2]; 22Rv1DOC8, docetaxel alone, Figure 5A, read-out: IC 50): 224 nM
Relative resistance (22Rv1DOC8 [3]; 22Rv1-DOC8 vs 22Rv1, 2D proliferation assay): 133.6
IC50 (22Rv1DOC8 [3]; 22Rv1-DOC8 (passage 8 nM docetaxel), 2D proliferation assay, read-out: Docetaxel IC50): 134 nM
IC50 (22Rv1DOC8 [3]; 22Rv1DOC8, 2D culture, Figure 1, read-out: IC 50): 134 nM
IC50 (OVXF 899): 20.2 nM
IC50 (15 tumor cell lines): 2.6 nM
IC50 (GXA NUGC-4): 5.5 nM
Papp A→B at 60 min, 5 μM ([4]; Caco-2): 0.29 ± 0.06 ×10⁻⁶ cm/s
Papp A→B at 60 min, 10 μM ([4]; Caco-2): 0.66 ± 0.02 ×10⁻⁶ cm/s
Papp A→B at 120 min, 5 μM ([4]; Caco-2): 0.81 ± 0.06 ×10⁻⁶ cm/s
Papp A→B at 120 min, 10 μM ([4]; Caco-2): 0.91 ± 0.15 ×10⁻⁶ cm/s
Papp B→A at 60 min, 5 μM ([4]; Caco-2): 20.3 ± 0.25 ×10⁻⁶ cm/s
Papp B→A at 60 min, 10 μM ([4]; Caco-2): 21 ± 0.78 ×10⁻⁶ cm/s
Papp B→A at 120 min, 5 μM ([4]; Caco-2): 35.4 ± 1.83 ×10⁻⁶ cm/s
Papp B→A at 120 min, 10 μM ([4]; Caco-2): 29.6 ± 0.8 ×10⁻⁶ cm/s
efflux ratio at 60 min, 5 μM ([4]; Caco-2, docetaxel 5 μM, incubation 60 min, inhibitor where named: valspodar 10 μM or ritonavir 50 μM, read-out: ER): 69.5
efflux ratio at 120 min, 5 μM ([4]; Caco-2, docetaxel 5 μM, incubation 120 min, inhibitor where named: valspodar 10 μM or ritonavir 50 μM, read-out: ER): 43.9
efflux ratio at 60 min, 10 μM ([4]; Caco-2, docetaxel 10 μM, incubation 60 min, inhibitor where named: valspodar 10 μM or ritonavir 50 μM, read-out: ER): 31.8 ± 1.54
efflux ratio at 120 min, 10 μM ([4]; Caco-2, docetaxel 10 μM, incubation 120 min, inhibitor where named: valspodar 10 μM or ritonavir 50 μM, read-out: ER): 32.7
ER values (Caco-2 cell monolayers; both at 5 and 10 μM docetaxel, no inhibitor): > 2
ER (Caco-2 cell monolayers; docetaxel 5 μM, incubation 60 min): 69.46 ± 13.24
ER (Caco-2 cell monolayers; docetaxel 5 μM, incubation 120 min): 43.85 ± 3.80
ER (Caco-2 cell monolayers; docetaxel 10 μM, incubation 120 min): 32.66 ± 5.35
IC50 (DU-145DOC10 [5]; DU-145DOC10, 3D clonogenic assay, without elacridar (elacridar experiment), read-out: Docetaxel IC50): 11.7 nM
fold decrease of relative IC50 of docetaxel by elacridar (DU-145DOC10 [5]; DU-145DOC10, elacridar 1 µM as printed (lower of two concentrations), 3D clonogenic assay): 6 fold
fold decrease of relative IC50 of docetaxel by elacridar (DU-145DOC10 [5]; DU-145DOC10, elacridar 10 µM as printed (higher of two concentrations), 3D clonogenic assay): 7.1 fold
fold lower docetaxel IC50 on addition of ritonavir (DU-145DOC10 [5]; DU-145DOC10, ritonavir 10 µM, 3D clonogenic assay): 3.4 fold
Relative resistance (DU-145DOC10 [5]; [6]): 1.5
Relative resistance (DU-145DOC10 [5]; [7]): 1.0
Relative resistance (DU-145DOC10 [5]; [8]): 10.6
Relative resistance (DU-145DOC10 [5]; [9]): 3.3
IC50 (DU-145DOC10 [5]; Homo sapiens, DU-145DOC10, 3D clonogenic assay, + elacridar 1 µM, read-out: Docetaxel IC50): 1.6 nM
IC50 (DU-145DOC10 [5]; Homo sapiens, DU-145DOC10, 3D clonogenic assay, + elacridar, first of two values both printed as 1 μM (Figure 6 legend), read-out: Docetaxel IC50): 1.9 nM
IC50 (DU-145DOC10 [5]; Homo sapiens, DU-145DOC10, 3D clonogenic assay, + ritonavir 10 µM, read-out: Docetaxel IC50): 2.8 nM
IC50 (DU-145DOC10 [5]; Homo sapiens, DU-145DOC10, 3D clonogenic assay, without elacridar (elacridar experiment), read-out: Docetaxel IC50): 11.4 nM
IC50 (DU-145DOC10 [5]; Homo sapiens, DU-145DOC10, 3D clonogenic assay, without ritonavir (ritonavir experiment), read-out: Docetaxel IC50): 9.5 nM
IC50 (DU-145DOC10 [5]; Homo sapiens, DU-145DOC10, docetaxel alone, Figure 4A, read-out: IC 50): 9.37 nM
IC50 (DU-145DOC10 [5]; Homo sapiens, DU-145DOC10, docetaxel alone, Figure 6A, read-out: IC 50): 11.4 nM
IC50 (OVXF EFO-27): 0.7 nM
IC50 (OVXF NCI-ADR-RES): > 100 nM
IC50 (GXA 3011): 0.5 nM
IC50 (22Rv1; + ritonavir 10 µM): 1.8 nM
IC50 (22Rv1; [10]): 1.3 nM
IC50 (22Rv1; [11]): 1.3 nM
IC50 (PC-3DOC3; Homo sapiens, PC-3DOC3 (passage 2 nM docetaxel)): 4.4 nM
Relative resistance (PC-3DOC3; PC-3DOC3 vs PC-3): 4.0
IC50 (DU-145; + ritonavir 10 µM): 1.7 nM
IC50 (DU-145; [10]): 1.1 nM
IC50 (DU-145; [11]): 2.9 nM
IC50 (MAXFTN MX1): 1.9 nM
IC50 (PC-3M): 2.4 nM
IC50 (MAXFTN MCF 10A): 0.7 nM
IC50 (LXFA 737): 2.2 nM
IC50 (PRXF DU-145; DU-145, DU-145, 2D culture, Figure 1, read-out: IC 50): 0.81 nM
IC50 (PRXF DU-145; DU-145, DU-145 parental, 2D proliferation assay, read-out: Docetaxel IC50): 0.8 nM
IC50 (PRXF DU-145; DU-145, PRXF DU-145, 2D proliferation assay, read-out: Relative docetaxel IC50): 0.9 nM
